Results: patent publication US8309068B2, “Isolated polypeptides and methods of improving muscle strength” (Myostin Therapeutics Pty Ltd., priority 2006, dated 2012)
Where no end group is shown, it is not given here.

Columns and labels:
Wild type mice = assay: In vivo sarcopenia trial, 10 month administration in wild type mice
Procedure: Wild type mice (32 mice approx. 4-5 months of age) were injected subcutaneously fortnightly or monthly with 300 (6 μg/g body weight) or saline for a period of 10 month. Muscle strength was assessed using a grip strength apparatus (MK-380S, Muromachi; Tokyo, Japan) at the end of the trial. The maximum force exerted by a mouse while being pulled backward by the tail is recorded in Newtons. The mean of three grip tests for each mouse was calculated and the mean maximal force per group was determined.

mdx mice = assay: Mdx in vivo trial
Procedure: An in vivo trial was performed in which 4 week old mdx mice were injected 3× per week with 300 (6 μg/g) or saline (10 mice in each treatment) for 4 weeks. Body weights were recorded regularly and blood was collected for creatine kinase activity to assess the extent of muscle damage. Grip tests were performed as a measure of strength. After 4 weeks of treatment mice were culled and individual hind limb muscles collected for protein expression analysis—Pax7 & MyoD (satellite cell activation/myogenesis), and histology.
Protein was extracted from three hind limb muscles, biceps femoris, tibialis anterior and gastrocnemius. 15 μg of protein was separated on 4-12% SDS PAGE, transferred to nitrocellulose membrane and immunoprobed with Pax7 and MyoD.
Ten micron transverse sections were cut from the midbelly region of each m. gastrocnemius. Muscle sections were stained with haematoxylin and eosin (H & E) to visualise and measure areas of necrosis and regeneration. These areas were analysed using an Olympus BX50 microscope (Olympus, Tokyo, Japan), a SPOT-RT 4.01 camera and software (Diagnostic Instruments, Sterling Heights, Mich.). Areas were measured using Image-Pro Plus (Media Cybernetics, Silver Spring, Md.).
Blood was collected by tail-bleeding into 75 mm heparinised microhematocrit tubes. Tubes were centrifuged in a Micro-hematocrit centrifuge (Adams) for 5 minutes and then the plasma removed. The recovered plasma was centrifuged again at 2500×g for 5 minutes and then stored at −80° C. until analysis. Plasma was separated from the red blood cells within 2 hours of blood collection to minimise hemolysis. Creatine kinase activity was determined using CK N-acetyl-L-cysteine creatine kinase kit (Beckman Coulter) within 6 weeks of plasma collection. Muscle strength was assessed using a grip strength apparatus (MK-380S, Muromachi; Tokyo, Japan) at the beginning, mid-point and end of the trial. The maximum force exerted by a mouse while being pulled backward by the tail is recorded in Newtons. The mean of three grip tests for each mouse was calculated and the mean maximal force of 10 mice per group was determined.

Sixteen month old mice = assay: In vivo trial in sixteen month old mice (sarcopenic muscle, grip strength)
Procedure: An animal trial was conducted to assess the effects of myostatin antagonist 300 in improving muscle function. Sixteen month old mice were divided into two groups of ten. While the control group received saline subcutaneous (SC) injections, the other group received myostatin antagonist 300 SC at 6 μg/gram of BW three times a week for six weeks. The functional improvement of sarcopenic muscle was assessed by measuring grip strength of mice at the end of trial. Grip strength was measured in Newtons.

satellite cells = assay: Single muscle fibre satellite cell activation assay (PCNA labeling); format: cell-based, mice
Procedure: Single fibres were isolated as previously described Rosenblatt et al., (1995). Briefly, 1 and 24 month old wild-type mice were euthanized by CO2 gas followed by cervical dislocation. TA were dissected out and digested in 0.2% (w/v) type 1A collagenase (>260 CDU/mg, Sigma) in Dulbecco's modified Eagle medium (DMEM) (Invitrogen) for 60 minutes at 37° C. Muscles were transferred to DMEM +10% horse serum (HS) +0.5% chicken embryo extract (CEE) and fibres were separated by gentle trituration. Isolated fibres were transferred to 4 well chamber slides (Becton Dickinson) coated with 10% matrigel (Becton Dickinson) and fixed with 100% ice cold methanol for 10 minutes after culturing up to 72 hours at 37° C. in 5% CO2.
Proliferating Cell Nuclear Antigen (PCNA) is expressed in cells that are actively undergoing cell cycle but not in quiescent cells. […] However, upon activation, satellite cells are activated to express PCNA and regenerate the muscle by replenishing the muscle fibres. Thus PCNA is a very reliable antigen to marker for the activated satellite cells.
In order to determine the effect of myostatin antagonists on satellite cell activation, single muscle fibres from TA muscle of young (1 month) or old (24 month) wild type mice were cultured in presence of 5 μg/ml of myostatin antagonist 320, 310 or 300, in culture media for 24, 48 and 72 hours and fixed with methanol and washed in PBS. The fixed fibres were permeabilised in 0.5% TritonX-100 in PBS for 10 minutes, blocked in 10% normal goat serum and 0.35% carrageenan lambda in PBS for 30 minutes at room temperature then incubated with a 1:100 dilution of anti-PCNA antibody in blocker overnight. Primary antibody was detected using goat anti-mouse-alexa fluor 546 and fibres were counterstained with DAPI. PCNA positive activated satellite cells were counted under microscope and expressed as a percent of total myonuclei.

myostatin = assay: C2C12 myoblast proliferation competition assay: wild type myostatin competed with antagonists; format: cell-based; settings: antagonist 1, 5 and 10 μg/ml; myostatin 2.25 μg/ml
Procedure: […] C2C12 myoblasts were grown in Dulbecco's modified eagle medium according to the standard techniques (Thomas et al, 2000). The myoblast proliferation assay was carried out in uncoated 96-well microtitre plates. C2C12 cultures were seeded at 1000 cells/well. Following a 16-hour attachment period, test media containing either recombinant wild type myostatin or different myostatin antagonists were added and cells were incubated for a further 48 or 72 hour period. For competition assay, wild type myostatin was competed with different concentrations of myostatin antagonists prior to the addition into the media. After the incubation period, proliferation was assessed using methylene blue photometric endpoint assay as previously described (Thomas et al, 2000).

[1] = tested on: TA muscle burn in C56b1/6 mice; assay: In vivo muscle burn trial
Procedure: C56b1/6 mice at ˜12 months of age were anesthetized and a red-hot metal rod (1.5 mm wide, 7 mm long) was applied to TA muscle for 5 sec. The mice were injected subcutaneously with saline or 300 myostatin antagonists at 6 μg/g of body weight at day 1, 3, 5, 7 and 10 after injury. The mice were allowed to heal for 5, 7, 14, 21, 28, 35 and 46 days, after which they were culled and the muscle processed for histology.
Histological muscle samples were covered in OCT and frozen in isopentane cooled in liquid nitrogen. The sections were cut in a cryostat at 10 μm thickness and stained with H&E and Van Gieson. Regeneration markers such as total number of centrally formed nuclei (CFN) and number of fibres with CNF were analysed for each day following the different treatments, and the values plotted.

[2] = 6 μg/g 3x per week for 4 weeks, biceps femoris, tibialis anterior and gastrocnemius
[3] = m. gastrocnemius sections, H & E

myostatin antagonist 300: recombinant peptide, amino acids 267-300 of bovine myostatin, with N terminal and C terminal tag (SEQ ID NO: 6) (DFGLDCDEHSTESRCCRYPLTVDFEAFGWDWIIA; cysteine pairing not given here; also: N- and C-terminal tags; listed as Homo sapiens)
increase of muscle function, fortnightly compared with monthly application (Wild type mice; 6 μg/g SC fortnightly for 10 month, data not shown): equally effective
grip strength over saline control at the end of the trial (Wild type mice; 6 μg/g SC monthly for 10 month, p<0.01): significant increase
MyoD protein level (western blot) (mdx mice; [2]): substantial upregulation
Pax7 protein level (western blot) (mdx mice; [2]): substantial upregulation
change in plasma creatine kinase activity from commencement to completion of the trial (mdx mice; 4 weeks, vs saline): larger decrease
grip strength (mdx mice; after 4 weeks of treatment): significant increase
percentage necrotic area of muscle (mdx mice; [3]): Reduced Necrosis
percentage regenerating area of muscle (mdx mice; [3]): Increased Regeneration
body fat compared with saline treated controls (Sixteen month old mice; 16 month old mice, 6 week treatment, observation, result not shown): reduced the amount of subcutaneous fat including the inguinal fat pad
average percent change in grip strength (Sixteen month old mice; aged mice, 6 μg/g BW SC three times a week, six week period): highly significant increase
grip strength at the beginning and end of the trial (Sixteen month old mice; aged mice, day 0 and day 42, 6 μg/g BW SC three times a week): significantly increased
percentage of activated satellite cells (satellite cells; single fibres from old (2 year old) mice, 5 μg/ml, 24 or 48 hours): Significant increases
percentage of activated satellite cells, comparison among antagonists and times (satellite cells; single fibres from old (2 year old) mice, after 48 hours): greatest increase
number of satellite cells activated (PCNA positive nuclei) (satellite cells; single fibres from young (1 month old) wild type mice, 5 μg/ml, 24 or 48 hours): significant increase
rescue of the proliferation-inhibiting effects of myostatin on myoblasts (myostatin): rescued to levels similar to those observed in the positive control
H&E staining of the muscle ([1]; 21 days after burn injury): darker stained fibres, many with centrally formed nuclei
degree of fibrosis (van Gieson staining) ([1]; D21 after injury): higher degree of fibrosis in the control group
number of fibres with centrally formed nuclei (CFN) ([1]; after muscle burn, compared to saline): increased number
percentage of damage muscle area, treatment vs control ([1]; from D28 onwards, data not shown): no difference
numbers of centrally formed nuclei (CFN) ([1]; muscle burn, by D21, maintained up to day 46, vs control): significantly higher
